Experimental data as given in patent US7449315B2, “Bifunctional energy-reversible acyl-compositions” (Cryolife, Inc., priority 2002, dated 2008).

Key:
Human thrombin = Human thrombin (Homo sapiens, UniProt P00734); assay: Inhibition and light reactivation of thrombin by R-NH-CINN-AP inhibitors, S-2238 chromogenic assay; type: biochemical; details: for Inhibition after 16 Hrs Incubation (%): ambient temperature, dark; for Light Reactivation (%): after 10 seconds of blue light, activity light/activity control
Procedure: (§1) R is -tBOC, —H2^+, or mPEG5000. Human thrombin was modified with R—NH-CINN-AP inhibitors as follows: Thrombin (600 units; ˜3.5 nmol) in 50 mM sodium citrate buffer, 3 mM CaCl2, 7% kollidon, pH 7.0, was reacted with 3.5-35 nmol of the R—N-CINN-AP inhibitor for 12-18 hours at ambient temperature in the dark. Thrombin activities were measured under red light (“dark”) and after exposure to 10 seconds of blue light from a dental light and were assayed using S-2238 (diaPharma) at 30° C. Percentage inhibition was calculated as 100—dark activity. Dark activity was calculated as [activitydark÷activitycontrol]×100. Light reactivation was calculated as activitylight÷activtycontrol. The following are typical results.

Human tPA (Activase) = target: T1, Human tPA (Activase) (Homo sapiens, UniProt P00750); assay: Inhibition and light reactivation of tPA by Rz-NH-CINN-AP inhibitors, S-2288 chromogenic assay; type: biochemical; details: for Inhibition after 16 hrs incubation (%): ambient temperature, dark; for Light Reactivation (%): after blue light
T1 construct: purchased Genentech Inc. Lot # E9034A
T1 sequence (P00750 36-562): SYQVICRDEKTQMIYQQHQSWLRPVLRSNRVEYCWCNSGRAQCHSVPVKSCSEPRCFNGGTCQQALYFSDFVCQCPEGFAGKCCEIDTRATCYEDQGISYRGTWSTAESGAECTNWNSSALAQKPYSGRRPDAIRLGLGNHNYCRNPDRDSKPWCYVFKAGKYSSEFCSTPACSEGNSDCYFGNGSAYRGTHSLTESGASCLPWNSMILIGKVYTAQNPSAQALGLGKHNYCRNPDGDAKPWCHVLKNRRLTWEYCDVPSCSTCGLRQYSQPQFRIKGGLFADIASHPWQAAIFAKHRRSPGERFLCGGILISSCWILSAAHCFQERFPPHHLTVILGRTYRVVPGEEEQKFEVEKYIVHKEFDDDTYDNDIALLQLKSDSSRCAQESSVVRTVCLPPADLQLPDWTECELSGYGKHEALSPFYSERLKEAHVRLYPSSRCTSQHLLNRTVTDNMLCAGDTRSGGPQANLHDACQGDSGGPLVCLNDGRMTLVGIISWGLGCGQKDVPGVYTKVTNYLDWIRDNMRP
Procedure: as §1
R2 is -tBOC, —-H2^+, or mPEG5000. The procedures of Examnple 4 was repeated except that Human tPA (Activase, Genentech Inc. Lot # E9034A) was modified with Rz—NH-CINN-AP inhibitors in place of thrombin. The reactions were carried out as follows: tPA (0.83 nmol) in 10 mM tris-HCl, 130 mM NaCl, pH 7.4 was reacted with 0.8 3-8.3 nmoles of the R—NH CINN-AP inhibitors for 12-18 hours at ambient temperature in the dark. Activities were calculated as for Example 4, using S-2288 (diaPharna).

[1] = Solubility in aqueous solution after removal of t-BOC; type: physicochemical; details: neutralized to pH 7.0
Procedure: 3-[2-hydroxy-4-(ethyl)(2-tert-butyloxycarbamidoethyl)amino]phenyl-2-methylpropenoic acid, 4-aminoiminophenyl ester, HCl salt (15; 12 mg, 25 μmmol) was suspended in 1.2 ml of 3N HCl and mixed by inversion for 3 hours at ambient temperature to release the t-BOC group and generate 3-[2-hydroxy-4-(ethyl) aminoethyl)amino]phenyl-2-methylpropenoic acid, 4-aminoiminophenyl ester, HCl salt (16; N-CINN-AP). After 3 hours, the reaction was neutralized with 3N NaOH to give a final pH of 7.0.

Inhibition after 16 Hrs Incubation (%) (Human thrombin; inhibitor excess 1×) | Inhibition after 16 Hrs Incubation (%) (Human thrombin; inhibitor excess 5×) | Light Reactivation (%) (Human thrombin; inhibitor excess 10×) | Inhibition after 16 Hrs Incubation (%) (Human thrombin; inhibitor excess 10×) | Inhibition after 16 hrs incubation (%) (Human tPA (Activase); inhibitor excess 5×) | Light Reactivation (%) (Human tPA (Activase); inhibitor excess 10×) | Inhibition after 16 hrs incubation (%) (Human tPA (Activase); inhibitor excess 10×) | Solubility (in words) [1] | Compound | Thrombin inhibition (in words) (Human thrombin; summary of Table 1) | tPA inhibition (in words) (Human tPA (Activase); Table 2)
21 | 70 | 64 | 96 | 78 | 78 | 88 | soluble in aqueous solution | CCN(CCN)c1ccc(C=C(C)C(=O)Oc2ccc(C(=N)N)cc2)c(O)c1.Cl [#16] | less effective inhibitor at lower molar ratios | less effective inhibitor at lower molar ratios
94 | 98 | 72 | 97 | 95 | 87 | 95 |  | CCN(CCNC(=O)OC(C)(C)C)c1ccc(C=C(C)C(=O)Oc2ccc(C(=N)N)cc2)c(O)c1.Cl [#15, 3-[2-hydroxy-4-(ethyl)(2-tert-butyloxycarbamidoethyl)amino]-phenyl-2-methylpropenoic acid, 4-aminoiminophenyl ester, HCl salt] |  | 
